From patent publication US9849154B2, “Synergistic combination of alanine-glutamine, hyaluronic acid and oat extract and the use thereof in a composition intended for healing wounds and repairing skin lesions” (PIERRE FABRE DERMO-COSMETIQUE, priority 2013, dated 2017) come the findings set out here.

Residues, ends and D or L forms follow the SMILES beside them.

In this assay the test system is HaCaT human keratinocyte line. The assay is described as follows: Oris Cell Migration Assay: migration of keratinocytes. It counts as cell-based. The note with it: DMEM 0% FCS; for % Migration (control 0% FCS = 100) / Average ± SD (fluorescence intensity, FI): 24 h. The text has this:
The objective of this test was to evaluate the effect of hyaluronic acid, oat seedling extract, L-alanyl-L-glutamine and combinations thereof on the migration of keratinocytes using the Oris Cell Migration Assay kit (Platypus Technologies).
The spontaneously immortalised HaCaT human keratinocyte line, frequently cited as reference model in the literature was used.
The protocol used for the study of cell migration is based on the use of a 96 well kit, the Oris Cell Migration Assay (Platypus technologies—TEBU), enabling the miniaturisation and the quantification of this cellular process.
The principle of this test consists in studying cell migration towards the centre of the wells of the 96 well plate. It consists in placing a stopper in the wells, in order to create a 2 mm diameter detection zone. Then removing the stoppers once cells have properly adhered to the surface around them, and thus to enable cells to migrate towards the detection zone. The plates without stoppers and with the active ingredients are incubated at 37° C. for 24 hours in DMEM (Dulbecco's Modified Eagle Medium) 0% FCS (foetal calf serum). The quantity of cells situated in the zone where the stopper was is analysed in order to evaluate the migration of the cells. A mask makes it possible to visualise and to count uniquely the cells situated in this zone. For each condition, the average is determined on 6 to 8 wells.
The cells were incubated in FCS-free medium.
• EGF: 33 ng/ml, • oat seedling extract: 10 or 30 μg/ml,
Filtering. Concentration by drying until a dry extract is obtained. • sodium hyaluronate (molecular weight 250-450 kDa): 20 or 60 μg/ml, • L-alanyl-L-glutamine: 40 or 90 μg/ml. Analysis of the Results
The Results are Expressed: • In fluorescence intensity (FI), proportional to the quantity of cells having migrated. • In percentage activity compared to the control 0% FCS.
[formula] Statistical Analyses
Statistical analyses by the Dunnett test were carried out on the crude migration values. This test then gives “p value” values characterising the significance of the results obtained for different conditions. The degree of significance was fixed at
The results at different concentrations of the effect of oat seedling extract, hyaluronic acid and L-alanyl-L-glutamine, alone or in combination on the migration of keratinocytes are indexed in tables 1 and 2 then represented in the single FIGURE. The fluorescence intensity values represented on this curve correspond to an average of 6 to 8 measurements carried out during an experiment representative of 3 independent manipulations.

As to `C[C@H](N)C(=O)N[C@@H](CCC(N)=O)C(=O)O` [ALANYL GLUTAMINE, L-alanyl-L-glutamine] (H-Ala-Gln-OH), the “effect on the migration of keratinocytes (in words)” value (L-alanyl-L-glutamine alone, 40 or 90 μg/ml) was “induces the migration of keratinocytes in a concentration-dependent manner”. For the same compound, for the setting “Table 1, 40 μg/ml”, the “% Migration (control 0% FCS = 100)” value is listed as 200% and the “Average ± SD (fluorescence intensity, FI)” value (from here on “Average ± SD”) amounted to 2471 ± 788. Moreover, for the setting “Table 2, 90 μg/ml”, the “% Migration (control 0% FCS = 100)” value was 194% and the “Average ± SD” value amounted to 2586 ± 1092.
“EGF: EGF, positive control of the migration experiments, 33 ng/ml”: the “% Migration (control 0% FCS = 100)” value is on record as 216% (Table 1, EGF 33 ng/ml) and 301 * % (Table 2, EGF 33 ng/ml, * p < 0.05 versus control). Besides, the “Average ± SD” value by setting is: (Table 1, EGF 33 ng/ml) 2569±; (Table 2, EGF 33 ng/ml) 3553 ± 1556. Besides, the “effect on the migration of keratinocytes (in words)” value (positive control, EGF 33 ng/ml) was “induces the migration of keratinocytes”.
